{"source": "patent US10010581B2", "about": "“Syndecan peptides and polypeptides and uses thereof” (Wisconsin Alumni Research Foundation, priority 2012, dated 2018)", "key": {"[1]": {"test_system": "MCF10A mammary epithelial cells", "assay": "scratch wound haptotaxis induced by clustering the α6β4 integrin", "assay_type": "cell-based, human", "conditions": "α6β4 integrin clustered", "experimental": "FIG. 9. Sdc1 ectodomain fragments and β4 dominant-negative mutant specific for Sdc1/α6β4/HER2 block MCF10A mammary epithelial cell migration. Haptotaxis of MCF10A human mammary epithelial cells induced by clustering the α6β4 integrin in a scratch wound assay is used to test the efficacy of inhibitors that target the Sdc1 mechanism. Cells are incubated either with entire recombinant syndecan ectodomains (Sdc1 ectodomain (S1ED) or Sdc4 ectodomain (S4ED) as a control), or an active fragment of mouse S1ED (S1ED^200-252) containing the inhibitory site.\n(§1) HaCat or MCF10A cells were grown to confluence on 48 well-plates were starved for 6 hr by serum deprivation followed by introduction of a scratch wound in the monolayer using 200 μl pipette tip. Cells were cultured an additional 18 hr in DMEM containing mAb 3E1 (10 μg/ml) and goat anti-mouse IgG (50 μg/ml), EGF (10 ng/ml) or HGF (20 ng/ml) to cause cell migration in the presence or absence of inhibitors. Images were acquired using a PlanApo 20 (0.75 numerical aperture) objective and a Photometrics CoolSnap ES camera on a Nikon Eclipse TE2000U microscopy system and wound closure quantified.\nThe inventor used this assay to further truncate the S1ED recombinant proteins in order to find the smallest peptide that retains full inhibitory activity (e.g., SSTNHER2). The inventor tested mouse and human S1ED and find that they compete equally. […]"}, "[2]": {"test_system": "HaCat keratinocytes or MCF10A mammary epithelial cells", "assay": "competition of LPA-induced haptotactic migration by GST fusion proteins or synthetic peptides (FIG. 10 summary)", "assay_type": "cell-based, human", "conditions": "0.1 to 30 μM, 3 μM LPA", "experimental": "FIGS. 10A-C. Schematic summary of experiments using either recombinant GST fusion proteins or synthetic peptides to disrupt Sdc1-dependent coupling of HER2 to α6β4 integrin necessary for LPA-induced haptotactic migration. GST-fusion proteins or synthetic peptides were added at concentrations ranging from 0.1 to 30 μM to the culture medium of human HaCat keratinocytes or MCF10A mammary epithelial cells in the presence or absence of 3 μM LPA. The ability of the constructs to inhibit the migration of the cells to close a scratch wound in confluent monolayers was determined and expressed as the concentration of inhibitor necessary to cause 50% inhibition of cell migration. (FIG. 10A) Competition using recombinant GST-fusion proteins. GST-Sdc1 fusion proteins bearing truncations or mutations were assessed for their competitive activity. […] (FIG. 10B) Competition with synthetic peptides. Peptides were purchased from commercial sources for testing as a putative synstatin inhibitory peptide (SSTNHER2). […] (FIG. 10C) Schematic representation of the active site in Sdc1. The active site is shown as a juxtamembrane site in the ectodomain of Sdc1. TM is the transmembrane domain and CYTO is the cytoplasmic domain. The sequence of a peptide derived from this site (SSTNHER2) is shown along with its homology across other mammalian Sdc1 species. The human STTNHER2 sequence is SEQ ID NO:23; the homology for STTNHER2 across mammals is SEQ ID NO:24.\nas §1"}, "[3]": {"test_system": "HaCat human keratinocytes", "assay": "total cell number, CellTiterGLO assay", "assay_type": "cell-based", "conditions": "single peptide, concentrations as high as 30 μM, 4 or 7 days", "experimental": "FIGS. 11A-F. SSTN treatment of normal (nontransformed) epithelial cells versus carcinoma (transformed) cells. Cells are plated for one day, then treated with either 3-30 μM […] (SSTN-I), 3-30 μM […] (SSTN-E), 3-30 μM SSTNHER2 (SSTN-H) or combinations of the three peptides, each at 10 μM to test their additive effect. […] The treatment times are chosen to reflect only modest effects of the peptides used singly, so that the more pronounced effect of peptides used in combination can still be observed. Treatment for longer times leads to significant cell death observed even with single peptides alone. (FIG. 11A) HaCat human keratinocytes, an example of a normal stratified epithelium, (FIG. 11B) UM-SCC47 cells, a squamous cell carcinoma derived from the tongue of a patient (a stratrified epithelium), (FIG. 11C) SCC25 cells, another squamous cell carcinoma from the tongue of a patient (FIG. 11D) MCF10A cells, a normal human breast epithelium, (FIG. 11E) MDA-MB-468 cells, a triple-negative (TN) breast carcinoma, and (FIG. 11F) SKBr3 cells, a HER2+ human breast carcinoma. Note that the “triple-negative” designation of the MDA-MB-468 carcinoma means the cells are negative for progesterone receptor, estrogen receptor and the HER2 kinase. Thus, they would not be expected to rely on HER2. Indeed, these cells are not affected by SSTNHER2, either alone or when combined with the other peptides. […]"}}, "data": [{"substance": "SSTNHER2: synthetic peptide of human Sdc1 ectodomain amino acids 210-240 (SEQ ID NO:3), inhibits Sdc1 coupling of HER2 to α6β4 integrin (DFTFETSGENTAVVAVEPDRRNQSPVDQGAT; listed as Homo sapiens)", "values": [{"measurement": "haptotaxis (migration to close a scratch wound)", "setting": "[1]", "result": "blocks haptotaxis"}, {"measurement": "competitive (inhibitory) activity on haptotactic migration", "setting": "[2]", "result": "fully active"}, {"measurement": "growth or survival", "setting": "[3]", "result": "no effect"}]}]}
